In patent US11058678B2 (Enanta Pharmaceuticals, Inc., priority 2018, dated 2021):

Key:
[1] = tested on: HBV (2.2.15 cells); test: Antiviral activity in 2.2.15 cells: reduction of viral product accumulation (qPCR of lysates, HBsAg or HBeAg ELISA); type: cell-based, hepatitis B virus (HBV); conditions: Hepatitis B virus, 120 h, day 5 post treatment, 50% reduction of viral product accumulation in lysates or supernatants vs no drug controls, readout (qPCR, HBsAg, HBeAg) not specified
In short: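 HBV-producing 2.2.15 cells, 35,000/well, treated with 5-fold serial compound dilutions at 0.5% final DMSO for 5 days. Lysate HBV DNA by qPCR or supernatant HBsAg/HBeAg by ELISA; EC50 is 50% reduction versus no-drug control, binned A<0.1 μM, B 0.1-1 μM, C>1 μM.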

[2] = Compound induced cellular toxicity in HepG2 cells (ATPlite 1 Step); type: cell-based; conditions: human, three days, 50% reduction of total ATP levels vs no drug controls
Description: At day 3, post seeding cells are treated with ATPlite 1 Step according to the manufacturer's instructions.

Row | Structure (SMILES) | EC50 [1] [nM] | CC50 at 3 days [2] [nM]
1 | COCCCOc1cc2c(cc1-c1ccnn1C)-c1cc(=O)c(C(=O)O)cn1[C@H](C(C)(C)C)C2 [Example 18, (S)-6-(tert-butyl)-9-(3-methoxypropoxy)-10-(1-methyl-1H-pyrazol-5-yl)-2-oxo-6,7-dihydro-2H-pyrido[2,1-a]isoquinoline-3-carboxylic Acid] | < 100 | > 25000
2 | COCCCOc1cc2c(cc1-c1cc3ccccc3[nH]1)-c1cc(=O)c(C(=O)O)cn1[C@H](C(C)(C)C)C2 [Example 19, (S)-6-(tert-butyl)-10-(1H-indol-2-yl)-9-(3-methoxypropoxy)-2-oxo-6,7-dihydro-2H-pyrido[2,1-a]isoquinoline-3-carboxylic Acid] | 100 to 1000 | > 25000
3 | COCCCOc1cc2c(cc1-c1sc(C)nc1C)-c1cc(=O)c(C(=O)O)cn1[C@H](C(C)(C)C)C2 [Example 20, (S)-6-(tert-butyl)-10-(2,4-dimethylthiazol-5-yl)-9-(3-methoxypropoxy)-2-oxo-6,7-dihydro-2H-pyrido[2,1-a]isoquinoline-3-carboxylic Acid] | 100 to 1000 | > 25000
4 | COCCCOc1cc2c(cc1-c1c(C)oc3ccccc13)-c1cc(=O)c(C(=O)O)cn1[C@H](C(C)(C)C)C2 [Example 21, (S)-6-(tert-butyl)-9-(3-methoxypropoxy)-10-(2-methylbenzofuran-3-yl)-2-oxo-6,7-dihydro-2H-pyrido[2,1-a]isoquinoline-3-carboxylic Acid] | 100 to 1000 | > 25000
5 | COCCCOc1cc2c(cc1-c1ccc(F)cc1F)-c1cc(=O)c(C(=O)O)cn1[C@H](C(C)(C)C)C2 [Example 22, (S)-6-(tert-butyl)-10-(2,4-difluorophenyl)-9-(3-methoxypropoxy)-2-oxo-6,7-dihydro-2H-pyrido[2,1-a]isoquinoline-3-carboxylic Acid] | 100 to 1000 | > 25000
6 | COCCCOc1cc2c(cc1-c1cccc(F)c1F)-c1cc(=O)c(C(=O)O)cn1[C@H](C(C)(C)C)C2 [Example 23, (S)-6-(tert-butyl)-10-(2,3-difluorophenyl)-9-(3-methoxypropoxy)-2-oxo-6,7-dihydro-2H-pyrido[2,1-a]isoquinoline-3-carboxylic Acid] | 100 to 1000 | > 25000
7 | COCCCOc1cc2c(cc1-c1ccc3c(c1)OCCN3C)-c1cc(=O)c(C(=O)O)cn1[C@H](C(C)(C)C)C2 [Example 24, (S)-6-(tert-butyl)-9-(3-methoxypropoxy)-10-(4-methyl-3,4-dihydro-2H-benzo[b][1,4]oxazin-7-yl)-2-oxo-6,7-dihydro-2H-pyrido[2,1-a]isoquinoline-3-carboxylic Acid] | 100 to 1000 | > 25000
8 | COCCCOc1cc2c(cc1-c1nc3ccccc3o1)-c1cc(=O)c(C(=O)O)cn1[C@H](C(C)(C)C)C2 [Example 25, (S)-10-(benzo[d]oxazol-2-yl)-6-(tert-butyl)-9-(3-methoxypropoxy)-2-oxo-6,7-dihydro-2H-pyrido[2,1-a]isoquinoline-3-carboxylic Acid] | 100 to 1000 | > 25000
9 | COCCCOc1cc2c(cc1-c1nc(C(F)(F)F)co1)-c1cc(=O)c(C(=O)O)cn1[C@H](C(C)(C)C)C2 [Example 26, (S)-6-(tert-butyl)-9-(3-methoxypropoxy)-2-oxo-10-(4-(trifluoromethyl)oxazol-2-yl)-6,7-dihydro-2H-pyrido[2,1-a]isoquinoline-3-carboxylic Acid] | 100 to 1000 | > 25000
10 | COCCCOc1cc2c(cc1-c1ocnc1C(F)(F)F)-c1cc(=O)c(C(=O)O)cn1[C@H](C(C)(C)C)C2 [Example 27, (S)-6-(tert-butyl)-9-(3-methoxypropoxy)-2-oxo-10-(4-(trifluoromethyl)oxazol-5-yl)-6,7-dihydro-2H-pyrido[2,1-a]isoquinoline-3-carboxylic Acid] | 100 to 1000 | > 25000
11 | COCCCOc1cc2c(cc1-n1cccn1)-c1cc(=O)c(C(=O)O)cn1[C@H](C(C)(C)C)C2 [Example 28, (S)-6-(tert-butyl)-9-(3-methoxypropoxy)-2-oxo-10-(1H-pyrazol-1-yl)-6,7-dihydro-2H-pyrido[2,1-a]isoquinoline-3-carboxylic Acid] | 100 to 1000 | > 25000
12 | COCCCOc1cc2c(cc1C1=CCCCO1)-c1cc(=O)c(C(=O)O)cn1[C@H](C(C)(C)C)C2 [Example 29, (S)-6-(tert-butyl)-10-(3,4-dihydro-2H-pyran-6-yl)-9-(3-methoxypropoxy)-2-oxo-6,7-dihydro-2H-pyrido[2,1-a]isoquinoline-3-carboxylic Acid] | 100 to 1000 | > 25000
13 | CC(C)(C)[C@@H]1Cc2c(cc(N3CC(F)(F)C3)c3c2CCO3)-c2cc(=O)c(C(=O)O)cn21 [Example 30, (S)-5-(tert-butyl)-12-(3,3-difluoroazetidin-1-yl)-9-oxo-2,3,4,9-tetrahydro-5H-furo[3,2-f]pyrido[2,1-a]isoquinoline-8-carboxylic Acid] | < 100 | > 25000
14 | COCCCOc1cc2c(cc1C1=COCC1)-c1cc(=O)c(C(=O)O)cn1[C@H](C(C)(C)C)C2 [Example 46, (S)-6-(tert-butyl)-10-(4,5-dihydrofuran-3-yl)-9-(3-methoxypropoxy)-2-oxo-6,7-dihydro-2H-pyrido[2,1-a]isoquinoline-3-carboxylic Acid] | < 100 | > 25000
15 | COCCCOc1cc2c(cc1-c1ccc(F)cc1)-c1cc(=O)c(C(=O)O)cn1[C@H]1[C@@H]2CCC1(C)C [Example 59] | < 100 | 10000 to 25000
16 | COCCCOc1cc2c(cc1-c1ccoc1)-c1cc(=O)c(C(=O)O)cn1[C@H]1[C@@H]2CCC1(C)C [Example 60, (3aS,12bR)-10-(furan-3-yl)-11-(3-methoxypropoxy)-3,3-dimethyl-7-oxo-1,2,3,3a,7,12b-hexahydrocyclopenta[c]pyrido[2,1-a]isoquinoline-6-carboxylic Acid] | < 100 | 10000 to 25000
17 | COCCCOc1cc2c(cc1-c1ccc(F)cc1)-c1cc(=O)c(C(=O)O)cn1[C@H]1[C@@H]2COC1(C)C [Example 61, (3aS,12bR)-10-(4-fluorophenyl)-11-(3-methoxypropoxy)-3,3-dimethyl-7-oxo-3,3a,7,12b-tetrahydro-1H-furo[3,4-c]pyrido[2,1-a]isoquinoline-6-carboxylic Acid] | < 100 | > 25000
18 | CC(C)(C)[C@@H]1Cc2c(cc(-c3ccc(F)cc3)c3c2CCO3)-c2cc(=O)c(C(=O)O)cn21 [Example 62, (S)-5-(tert-butyl)-12-(4-fluorophenyl)-9-oxo-2,3,4,9-tetrahydro-5H-furo[3,2-f]pyrido[2,1-a]isoquinoline-8-carboxylic Acid] | < 100 | < 10000
19 | COCCCOc1cc2c(cc1-c1cnco1)-c1cc(=O)c(C(=O)O)cn1[C@H]1[C@@H]2CCC1(C)C [Example 63, (3aS,12bR)-11-(3-methoxypropoxy)-3,3-dimethyl-10-(oxazol-5-yl)-7-oxo-1,2,3,3a,7,12b-hexahydrocyclopenta[c]pyrido[2,1-a]isoquinoline-6-carboxylic Acid] | < 100 | 10000 to 25000
20 | CC(C)(C)[C@@H]1Cc2c(cc(-c3ccoc3)c3c2CCO3)-c2cc(=O)c(C(=O)O)cn21 [Example 64, (S)-5-(tert-butyl)-12-(furan-3-yl)-9-oxo-2,3,4,9-tetrahydro-5H-furo[3,2-f]pyrido[2,1-a]isoquinoline-8-carboxylic Acid] | < 100 | < 10000
21 | CC(C)(C)[C@@H]1Cc2c(cc(-c3cccc(F)c3)c3c2CCO3)-c2cc(=O)c(C(=O)O)cn21 [Example 65, (S)-5-(tert-butyl)-12-(3-fluorophenyl)-9-oxo-2,3,4,9-tetrahydro-5H-furo[3,2-f]pyrido[2,1-a]isoquinoline-8-carboxylic Acid] | < 100 | < 10000
22 | CC(C)(C)[C@@H]1Cc2c(cc(-c3ccccc3F)c3c2CCO3)-c2cc(=O)c(C(=O)O)cn21 [Example 66, (S)-5-(tert-butyl)-12-(2-fluorophenyl)-9-oxo-2,3,4,9-tetrahydro-5H-furo[3,2-f]pyrido[2,1-a]isoquinoline-8-carboxylic Acid] | < 100 | < 10000
23 | CC(C)(C)[C@@H]1Cc2c(cc(-c3ccccc3)c3c2CCO3)-c2cc(=O)c(C(=O)O)cn21 [Example 67, (S)-5-(tert-butyl)-9-oxo-12-phenyl-2,3,4,9-tetrahydro-5H-furo[3,2-f]pyrido[2,1-a]isoquinoline-8-carboxylic Acid] | < 100 | < 10000
24 | CC(C)(C)[C@@H]1Cc2c(cc(-c3ccsc3)c3c2CCO3)-c2cc(=O)c(C(=O)O)cn21 [Example 71, (S)-5-(tert-butyl)-9-oxo-12-(thiophen-3-yl)-2,3,4,9-tetrahydro-5H-furo[3,2-f]pyrido[2,1-a]isoquinoline-8-carboxylic Acid] | < 100 | < 10000
25 | CC(C)(C)[C@@H]1Cc2c(cc(-c3ccc(F)c(F)c3)c3c2CCO3)-c2cc(=O)c(C(=O)O)cn21 [Example 77, (S)-5-(tert-butyl)-12-(3,4-difluorophenyl)-9-oxo-2,3,4,9-tetrahydro-5H-furo[3,2-f]pyrido[2,1-a]isoquinoline-8-carboxylic Acid] | < 100 | < 10000
26 | COc1cccc(-c2cc3c(c4c2OCC4)C[C@@H](C(C)(C)C)n2cc(C(=O)O)c(=O)cc2-3)c1 [Example 79, (S)-5-(tert-butyl)-12-(3-methoxyphenyl)-9-oxo-2,3,4,9-tetrahydro-5H-furo[3,2-f]pyrido[2,1-a]isoquinoline-8-carboxylic Acid] | < 100 | < 10000
